According to ChEMBL document CHEMBL5113463, “Discovery and preclinical evaluations of JBD0131, a novel nitrodihydro-imidazooxazole anti-tuberculosis agent” (Bioorg Med Chem Lett, 2022):
Converted amounts (≈) assume the structure as drawn.

System: Mycobacterium tuberculosis
Experiment: Antimycobacterial activity against clinical isolate multidrug resistant Mycobacterium tuberculosis H37Rv assessed as bacterial growth inhibition
Assay type: functional

SMILES | MIC50 | MIC90
C[C@]1(COc2ccc(N3CCC(Oc4ccc(OC(F)(F)F)cc4)CC3)cc2)Cn2cc([N+](=O)[O-])nc2O1 | 0.002 µg/mL (≈ 0.00374 µM) | 0.003 µg/mL (≈ 0.00561 µM)
C[C@]1(CN2Cc3nc(-c4ccc(F)cc4)sc3C2)CN=C(N)O1 | 0.011 µg/mL (≈ 0.0331 µM) | 0.035 µg/mL (≈ 0.105 µM)
NNC(=O)c1ccncc1 [ISONIAZID] | 4.37 µg/mL (≈ 31.9 µM) | > 40 µg/mL
NC[C@H]1O[C@H](O[C@H]2[C@H](O)[C@@H](O[C@H]3O[C@H](CO)[C@@H](O)[C@H](N)[C@H]3O)[C@H](N)C[C@@H]2N)[C@H](O)[C@@H](O)[C@@H]1O [KANAMYCIN] | 1.24 µg/mL (≈ 2.55 µM) | > 40 µg/mL
CO[C@H]1/C=C/O[C@@]2(C)Oc3c(C)c(O)c4c(O)c(c(/C=N/N5CCN(C)CC5)c(O)c4c3C2=O)NC(=O)/C(C)=C\C=C\[C@H](C)[C@H](O)[C@@H](C)[C@@H](O)[C@@H](C)[C@H](OC(C)=O)[C@@H]1C [RIFAMPIN] | > 40 µg/mL | > 40 µg/mL
